# Source: ChEMBL document CHEMBL4825775, “Substituted 2,3-Benzodiazepines Derivatives as Bromodomain BRD4 Inhibitors” (ACS Med Chem Lett, 2021)
# How the values were obtained:
# [1] = biological target: T1, Bromodomain-containing protein 4 (Homo sapiens, UniProt O60885); assay: Inhibition of recombinant human His-tagged BRD4 BD1 using biotin-labelled histone H4 acetylated peptide as substrate by TR-FRET assay
# [2] = biological target: T1, Bromodomain-containing protein 4; assay: Inhibition of recombinant human His-tagged BRD4 BD2 using biotin-labelled histone H4 acetylated peptide as substrate by TR-FRET assay
IC50 [1] [nM],IC50 [2] [nM],Compound
18.6,78.4,CNC(=O)N1N=C(c2ccc(N3CCN(C(=O)COCCOCCOCCOCC(=O)Nc4cccc5c4C(=O)N(C4CCC(=O)NC4=O)C5=O)CC3)cc2)c2cc(OC)c(OC)cc2C[C@@H]1C (stereo partly drawn)
19.3,166,CNC(=O)N1N=C(c2ccc(N3CCN(C(=O)CCOCCOCCOCCNc4ccc5c(c4)C(=O)N(C4CCC(=O)NC4=O)C5=O)CC3)cc2)c2cc(OC)c(OC)cc2C[C@@H]1C (stereo partly drawn)
24.9,136,CNC(=O)N1N=C(c2ccc(C(=O)NCCCCNC(=O)COc3cccc4c3C(=O)N(C3CCC(=O)NC3=O)C4=O)cc2)c2cc(OC)c(OC)cc2C[C@@H]1C (stereo partly drawn)
14.9,150,CNC(=O)N1N=C(c2ccc(N3CCN(C(=O)COCCOCCOCC(=O)Nc4cccc5c4C(=O)N(C4CCC(=O)NC4=O)C5=O)CC3)cc2)c2cc(OC)c(OC)cc2C[C@@H]1C (stereo partly drawn)
